These results are taken from patent US11891387B2, “Monoacylglycerol lipase modulators” (Janssen Pharmaceutica NV, priority 2020, dated 2024).

The assay concerns the target human MGL from HeLa cells (Homo sapiens (Human), UniProt Q99685). The assay can be described thus: MGL in vitro activity assay: cleavage of [glycerol-1,3-3H]-oleyl glycerol, activated carbon filtration. The class given is biochemical. As to conditions: 300 nM [Glycerol-1,3-3H]-oleyl glycerol, endogenously expressed MGL from HeLa cells, one hour incubation. The method, boiled down:
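Endogenous human MGL from HeLa cells or homogenates was incubated with compound and 300 nM [glycerol-1,3-3H]-oleyl glycerol for one hour. Released [3H]-glycerol passing an activated carbon filter was counted as the measure of activity. Screening used 10 μM compound, with IC50 top concentration set empirically.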

Chain of human MGL from HeLa cells (Q99685 whole entry): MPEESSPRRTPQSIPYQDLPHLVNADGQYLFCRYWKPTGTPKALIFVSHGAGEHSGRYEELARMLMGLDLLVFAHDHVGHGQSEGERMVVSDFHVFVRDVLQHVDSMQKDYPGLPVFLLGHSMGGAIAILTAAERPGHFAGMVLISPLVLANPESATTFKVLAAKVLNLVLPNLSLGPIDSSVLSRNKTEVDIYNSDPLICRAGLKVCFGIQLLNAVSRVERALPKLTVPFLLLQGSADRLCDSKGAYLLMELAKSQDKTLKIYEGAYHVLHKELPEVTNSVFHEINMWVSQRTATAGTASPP

Consider `C[C@H]1c2nn(C)c(-c3cnn(-c4ccccn4)c3)c2CCN1C(=O)c1ccc2ncccc2c1` [Example 70, (S)-(2,7-Dimethyl-3-(1-(pyridin-2-yl)-1H-pyrazol-4-yl)-2,4,5,7-tetrahydro-6H-pyrazolo[3,4-c]pyridin-6-yl)(quinolin-6-yl)methanone], for which 1230 nM corresponded to half-maximal inhibition (IC50).

On to `Cc1ccc(C(=O)N2CCc3c(nn(C)c3-c3cnn(C)c3C(F)(F)F)[C@@H]2C)c(F)c1` [Example 30, (S)-(2,7-Dimethyl-3-(1-methyl-5-(trifluoromethyl)-1H-pyrazol-4-yl)-2,4,5,7-tetrahydro-6H-pyrazolo[3,4-c]pyridin-6-yl)(2-fluoro-4-methylphenyl)methanone], for which inhibition was half-maximal at 3070 nM (IC50).

As to `Cc1ccc(C(=O)N2CCc3c(nn(C)c3-c3cc(C(F)(F)F)nn3C)[C@@H]2C)cc1C` [Example 43, (S)-(2,7-Dimethyl-3-(1-methyl-3-(trifluoromethyl)-1H-pyrazol-5-yl)-2,4,5,7-tetrahydro-6H-pyrazolo[3,4-c]pyridin-6-yl)(3,4-dimethylphenyl)methanone], the IC50 – broadly, the midpoint of a concentration-inhibition curve – was 33 nM.

As for `Cn1nc(C(F)(F)F)cc1-c1c2c(nn1C)[C@@H]1CCC[C@H](C2)N1C(=O)c1ccc2ncccc2c1` [Example 80, ((5R,9S)-2-Methyl-3-(1-methyl-3-(trifluoromethyl)-1H-pyrazol-5-yl)-4,5,6,7,8,9-hexahydro-2H-5,9-epiminocycloocta[c]pyrazol-10-yl)(quinolin-6-yl)methanone], 22 nM corresponded to half-maximal inhibition (IC50).

With `COc1cccc(C(=O)N2CCc3c(nn(C)c3-c3cc(C(F)(F)F)n(C)n3)[C@@H]2C)c1Cl` [Example 48, (S)-(2-Chloro-3-methoxyphenyl)(2,7-dimethyl-3-(1-methyl-5-(trifluoromethyl)-1H-pyrazol-3-yl)-2,4,5,7-tetrahydro-6H-pyrazolo[3,4-c]pyridin-6-yl)methanone], the IC50 came out at 19 nM.

As to `C[C@H]1c2nn(C)c(-c3cnn(C)c3C(F)(F)F)c2CCN1C(=O)c1ccc2ncsc2c1` [Example 59, (S)-Benzo[d]thiazol-6-yl(2,7-dimethyl-3-(1-methyl-5-(trifluoromethyl)-1H-pyrazol-4-yl)-2,4,5,7-tetrahydro-6H-pyrazolo[3,4-c]pyridin-6-yl)methanone], the IC50 was 2960 nM.

Consider `COc1cccc(C(=O)N2[C@@H]3CCC[C@H]2c2nn(C)c(-c4cc(C)nn4C)c2C3)c1C` (stereo in doubt) [Example 73, ((5R,9S)-3-(1,3-Dimethyl-1H-pyrazol-5-yl)-2-methyl-4,5,6,7,8,9-hexahydro-2H-5,9-epiminocycloocta[c]pyrazol-10-yl)(3-methoxy-2-methylphenyl)methanone], for which the IC50 is 230 nM.

In turn, `C[C@H]1c2nn(C)c(-c3cc(C(F)(F)F)nn3C)c2CCN1C(=O)c1nccc2ccccc12` [Example 44, (S)-(2,7-Dimethyl-3-(1-methyl-3-(trifluoromethyl)-1H-pyrazol-5-yl)-2,4,5,7-tetrahydro-6H-pyrazolo[3,4-c]pyridin-6-yl)(isoquinolin-1-yl)methanone] had an IC50 of 19 nM.

`C[C@H]1c2nn(C)c(-c3cc(C(F)(F)F)n(C)n3)c2CCN1C(=O)c1cnn2cccc(F)c12` [Example 19, (S)-(2,7-Dimethyl-3-(1-methyl-5-(trifluoromethyl)-1H-pyrazol-3-yl)-2,4,5,7-tetrahydro-6H-pyrazolo[3,4-c]pyridin-6-yl)(4-fluoropyrazolo[1,5-a]pyridin-3-yl)methanone]: the IC50 came to 19 nM.

In turn, `COc1cccc(C(=O)N2[C@@H]3CCC[C@H]2c2nn(C)c(-c4cc(C(F)(F)F)n(C)n4)c2C3)c1C` [Example 79, (3-Methoxy-2-methylphenyl)((5R,9S)-2-methyl-3-(1-methyl-5-(trifluoromethyl)-1H-pyrazol-3-yl)-4,5,6,7,8,9-hexahydro-2H-5,9-epiminocycloocta[c]pyrazol-10-yl)methanone] displayed an IC50 of 16 nM.

As to `C[C@H]1c2nn(C)c(-c3cc(C(F)(F)F)nn3C)c2CCN1C(=O)c1cc2scnc2cn1` [Example 122, (S)-(2,7-Dimethyl-3-(1-methyl-3-(trifluoromethyl)-1H-pyrazol-5-yl)-2,4,5,7-tetrahydro-6H-pyrazolo[3,4-c]pyridin-6-yl)(thiazolo[4,5-c]pyridin-6-yl)methanone], the IC50 was 260 nM.

Compound `C[C@H]1c2nn(C)c(-c3cc(C(F)(F)F)nn3C)c2CCN1C(=O)c1cccc(OC(F)(F)F)c1F` [Example 112, (S)-(2,7-Dimethyl-3-(1-methyl-3-(trifluoromethyl)-1H-pyrazol-5-yl)-2,4,5,7-tetrahydro-6H-pyrazolo[3,4-c]pyridin-6-yl)(2-fluoro-3-(trifluoromethoxy)phenyl)methanone] had an IC50 of 86 nM.
